Experimental data reported in patent US12138274B2, “Compositions and methods for the treatment of peripheral artery disease and cardiopulmonary diseases” (BOARD OF REGENTS OF THE UNIVERSITY OF NEBRASKA, priority 2018, dated 2024).

Legend:
Assay type in all cases: in vivo, rat
rats = assay: Premature ventricle contractions after intra-tracheal bleomycin; settings: single intra-tracheal delivery 2.5 mg/kg
Description: Bleomycin induces experimental lung fibrosis in a variety of animal models and it causes inflammatory and fibrotic reactions within a short period of time, even more so after intratracheal instillation.

vagotomized rats = assay: Pressor and sympatho-excitatory response to topical bradykinin in bleomycin-treated rats; settings: BK 10 μg/ml; 4 weeks after bleomycin, compared to sham
Experimental: For measuring vitals of the rats, a Millar catheter (SPR 524; size, 3.5-Fr; Millar Instruments, Houston, TX) was advanced through the right common carotid artery and progressed into the aorta and left in place to record arterial pressure (AP), mean arterial pressure (MAP), and heart rate (HR), using PowerLab (Model 16S) and LabChart software (version 7.0) (ADInstruments, Colorado Springs, CO). Renal sympathetic nerve activity (RSNA) and integrated RSNA (iRSNA) were also measured. RSNA was recorded as described (Gao, et al. (2005) Hypertension 45:1173-1181; Wang, et al. (2010) J. Appl. Physiol., 108:1365-1375; Becker, et al. (2016) J. Physiol., 594:5711-5725). In brief, the left kidney, renal artery, and nerves were exposed through a left retroperitoneal flank incision. Sympathetic nerves running on or beside the renal artery were identified. The renal sympathetic nerves were placed on a pair of platinum-iridium recording electrodes and cut distally to avoid recording afferent activity. Nerve activity was amplified ([…]) and filtered (bandwidth: 100 to 3000 Hz) using a Grass P55C preamplifier. […] At the end of the experiment, the rat was euthanized with an overdose of pentobarbital sodium. Respective noise levels were subtracted from the nerve recording data before percent changes from baseline were calculated. […]

[1] = test system: Interferon Regulatory Factor 8 (IRF8); assay: IRF8 protein expression in T1-T4 DRGs and stellate ganglia after bleomycin lung injury; settings: 4-weeks post-bleomycin rats

Substance: bleomycin
- premature ventricle contractions (PVC) (FIG. 14) (rats): dramatic increase
- pressor and sympatho-excitatory response to topical BK (FIG. 13) (vagotomized rats): exaggerated pressor and sympatho-excitatory response
- IRF8 protein expression in T1-T4 DRGs and stellate ganglia (FIG. 12) [1]: increases
